Six molecules from patent US20220402867A1, “SULFO-SUBSTITUTED BIARYL COMPOUND OR SALT THEREOF, PREPARATION METHOD THEREFOR, AND USE THEREOF” (Shanghai Litedd Co., Ltd., priority 2019, published 2022) can be followed below.

In one data set the target is T1, GST-RORγ LBD (263-509) (Homo sapiens, UniProt P51449).
T1 construct: GST-RORγ LBD ((263-509) (produced at ChemPartner))
T1 sequence (P51449 263-509): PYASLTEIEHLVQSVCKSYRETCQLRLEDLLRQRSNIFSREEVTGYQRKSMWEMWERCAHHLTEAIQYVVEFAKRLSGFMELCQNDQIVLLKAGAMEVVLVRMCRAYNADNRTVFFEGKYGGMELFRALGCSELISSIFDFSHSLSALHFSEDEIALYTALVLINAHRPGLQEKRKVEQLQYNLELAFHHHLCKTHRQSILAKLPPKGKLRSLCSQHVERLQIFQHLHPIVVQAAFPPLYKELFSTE
In words: TR-FRET assay of agonistic activity on RORγ receptor. It is filed as biochemical. The note with it: for EC50: TR-FRET, GST-RORγ LBD with Biotin-SRC1; for Emax % / Emax: maximum activation rate, TOP of fitted curve. On the procedure: A time-resolved fluorescence resonance energy transfer (TR-FRET) assay was used for the compounds of the present disclosure, to determine the agonistic activity of the compounds on the RORγ protein receptor. The agonistic activity is expressed by the concentration for 50% of maximal effect (EC50). The experiment was performed basically with reference to the methods described in ONCOIMMUNOLOGY, 2016, VOL. 5, NO. 12, e1254854.
1. Preparation of RORγ Basal Buffer
A 100 mL basal buffer was prepared, mixed homogeneously and stored for use;
The compounds of the examples shown in the table below were prepared into solutions with DMSO as the solvent, serially diluted at 3-fold dilution to 10 concentrations starting from 10 mM, and added to the corresponding wells of a 384-well plate with each concentration of each compound in duplicate;
a. A 75 nM solution of GST-RORγ LBD ((263-509) (produced at ChemPartner)) and a 4 nM solution of Biotin-SRC1 (Glsbiochem) were prepared with the above basal buffer. The two solutions were 1:1 mixed evenly, and 10 μL of the mixed solution was added into each well of the above 384-well plate. The plate was immediately centrifugated at 1000 rpm for 10 seconds; b. A 1 nM solution of Anti-GST Eu (Cisbio, #61GSTKLA) and a 50 nM solution of SA-APC (Cisbio, […]) were prepared with the above basal buffer. The two solutions were 1:1 mixed evenly, and 10 μL of the mixed solution was added into each well of the above 384-well plate. The plate was immediately centrifugated at 1000 rpm for 10 seconds; c. The resulting 384-well plate was incubated at room temperature for 15 minutes. Data were read on an Envision microplate reader, EC50 values and E max % were calculated.
a. Readings were taken at 665 nm and 615 nm wavelengths respectively on the Envision Microplate Reader, and the ratios between them were normalized. b. Calculation was carried out with the following equation: […]
wherein X is the reading of compounds, Min is the reading of the blank solution, and Max is the reading of 10 μM SRC. c. The concentration-response curve data were fitted by a four-parameter logistic nonlinear regression model, and Emax was the TOP value of the fitted curve.
Background: TR-FRET usually uses a lanthanide donor and a delayed reading to cut background.

The nature of data set [1]: Pharmacokinetic (PK) assay in mice. It is filed as in vivo. The note with it: CD-1 mice; for CL_obs: values marked **; for AUC(0-t) / Cmax / half-life / Vd / bioavailability: mouse, plasma; for Vd: values marked *, read-out: Vss; for bioavailability: Po 5 mg/kg vs IV 1 mg/kg. How it is done: The PK of each compound was determined as follows: 6 CD-1 mice (obtained from Shanghai Lingchang Biotechnology Co., Ltd.) were divided into two groups, 3 mice in each group. One group was administered intravenously at a dose of 1 mg/kg, and the vehicle was 5% DMSO/40% PEG400/55% (20% 3-CD); one group was administered by oral gavage at a dose of 5 mg/kg, and the vehicle was DMSO/1% methylcellulose (1:99). Blood samples were collected from saphenous vein of lower leg in each group at 0, 0.083, 0.25, 0.5, 1, 2, 4, 6, 8 and 24 h after administration. Approximately 40 μL of the blood samples were collected into anticoagulant tubes containing EDTA-K2. Immediately after collection, the tubes were inverted at least 5 times to ensure uniform mixing, and then placed on ice. The blood samples collected at each time point were centrifuged at 4° C., 8000 rpm for 5 minutes to obtain plasma. Another 1.5 mL centrifuge tube was marked with the compound name, animal number, and time point, and the plasma was transferred to this tube. The plasma was stored at −80° C. until analysis.
Compound concentrations in plasma were determined by UPLC-MS/MS method, and the pharmacokinetic parameters were calculated by Phoenix WinNolin 6.4 pharmacokinetic software on the obtained data.

The target of data set [2] is T2, RORγt (RORγ-LBD chimeric receptor) (Homo sapiens, UniProt P51449).
T2 construct: host or cells: HEK293T
T2 sequence (P51449 269-508 limits assumed): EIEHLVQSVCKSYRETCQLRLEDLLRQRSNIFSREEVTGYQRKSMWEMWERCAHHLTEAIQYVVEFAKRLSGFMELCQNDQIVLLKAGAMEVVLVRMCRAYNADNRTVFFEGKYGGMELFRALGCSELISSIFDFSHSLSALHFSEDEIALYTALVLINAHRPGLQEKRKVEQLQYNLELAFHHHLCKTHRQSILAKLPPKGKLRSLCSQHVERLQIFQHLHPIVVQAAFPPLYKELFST
In words: Luciferase reporter gene assay of RORγt agonistic activity in HEK293T cells. It counts as cell-based. Also on record: Emax: dose or concentration left out as unconfirmed. The note with it: for EC50: HEK293T, GAL4 luciferase reporter, read-out: EC50; for Emax: HEK-293T. The text has this:
This assay was basically carried out according to the method described in the literature ONCOIMMUNOLOGY, 2016, VOL. 5, NO. 12, e1254854.
The RORγ-LBD coding sequence was inserted into pBIND plasmid (Promega, E1581). This expression vector and a reporter vector (pGL4.35 carrying a stably integrated luciferase reporter gene driven by GAL4 promoter) were co-expressed in HEK293T host cells. When the agonist binds to the corresponding chimeric receptor, the chimeric receptor binds to the GAL4 binding site on the reporter gene carrier and stimulates reporter gene expression. The agonistic activity of the compound on RORγ was determined according to the intensity of the chemiluminescence signal.
1.1 All test compounds were serially diluted at 3-fold dilution with DMSO, with 10 serial dilutions starting from 10 mM; LIT-00093 solution was prepared similarly. […] 1.4 The compound plate was sealed and shaken for 5 min.
Cells were cultured according to ATCC standard operation, and 6*10^6 HEK293T cells were seeded into 100 mm cell culture dishes, cultured overnight in a 37° C., 5% CO2 incubator, and then transfected. Compounds of corresponding concentrations were added for treatment, and the Steady-Glo™ kit (Lot E 2520) was used for further detection.
Chemiluminescence values were detected with Envision 2104; EC50 values were calculated.
% Activity was calculated with the following equation: […]
RLU: […] R L Upositive: average value of positive control R L Uvehicle: average value of negative control
The log values of the compound concentration and % Activity were fitted using Graphad 8.0, to calculate EC50s of the compounds.
(In general: Reporter assays use an easily measured gene product as a stand-in for the process of interest.)

A short description of data set [3]: Metabolic stability in human liver microsomes. It is filed as in vitro ADME. The text has this:
According to standard methods of in vitro metabolic stability studies in the art, eg., the methods described in Kerns, Edward H. and Di Li (2008). Drug-like Properties: Concepts, Structure Design and Methods: from ADME to Toxicity Optimization. San Diego: Academic Press; Di, Li et al., Optimization of a Higher Throughput Microsomal Stability Screening Assay for Profiling Drug Discovery Candidates, J. Biomol. Screen. 2003, The method described in 8(4), 453, the liver microsomal metabolic stability test of the compounds of the present disclosure was carried out analogously as follows.
The incubation system contained 0.5 mg protein/mL microsomes, cofactors, and PBS, was pre-incubated at 37° C. for 3 min, and then added the substrate (i.e., the test compounds) to initiate the reaction. Samples were taken at 0, 1, 5, 10, 15, 20, 30 and 60 min from the start of the reaction, and an appropriate terminator was added to terminate the reaction.
The terminator was an ice acetonitrile solution containing 100 ng/mL tolbutamide and 100 ng/mL labetalol.
Sample treatment (n=3): each appropriate sample was added, vortexed and centrifuged at high speed. The supernatants were collected, and the substrate was detected by HPLC-MS/MS. The peak area at the 0 min was taken as 100%. The peak areas at other time points were converted to percentage of the remaining amount. The natural logarithms of the percentage of remaining amount at each time point was plotted against the incubation time, and the slope (−k) was calculated by linear regression. Then, Clint (uL/min/mg) and half-life (T½, min) of the compounds were calculated following the equation of the inherent clearance rate (Clint)=(k* volume of incubation solution)/mass of liver microsomes.
(Liver microsomes are a subcellular fraction often used to study metabolism.)

As a reminder, the EC50 is the concentration that produces a half-maximal response. A word on the AUC(0-t): it is exposure summed from dosing to a finite time, without extrapolation to infinity. As a reminder, the Cmax is the highest concentration seen after dosing. One may read the half-life as the time needed for the level to fall by half in the phase considered. Turning to `CCS(=O)(=O)c1ccc(C(CO)C(=O)Nc2cc(Cl)c(-c3ccc(S(=O)(=O)C4CC4)cc3)c(Cl)c2)cc1` (single isomer, unassigned) [Example 39, (S)—N-(2,6-dichloro-4′-(cyclopropylsulfonyl)-[1,1′-biphenyl]-4-yl)-2-(4-(ethylsulfonyl)phenyl)-3-hydroxypropionamide or (R)—N-(2,6-dichloro-4′-(cyclopropylsulfonyl)-[1,1′-biphenyl]-4-yl)-2-(4-(ethylsulfonyl)phenyl)-3-hydroxypropionamide], at GST-RORγ LBD (263-509), it took 13.5 nM to reach a half-maximal effect (EC50) and the Emax % is reported as 181.3%. In data set [1] (IV 1 mg/kg), the CL_obs is on record as 8.22** mL/min/kg, the AUC(0-t) is 2050 ng·h/mL, the peak level (Cmax) was 1080 ng/mL and the half-life was 3.7 h. Besides, the Vd in data set [1] (IV 1 mg/kg) came to 1.53 L/kg. In addition, the bioavailability in data set [1] amounted to 17.1%. In data set [1] (Po 5 mg/kg), the AUC(0-t) came out at 1720 ng·h/mL, the Cmax was determined as 400 ng/mL and the half-life is 3 h.
In the case of `CCS(=O)(=O)c1ccc(C(COC)C(=O)Nc2cc(Cl)c(-c3ccc(S(=O)(=O)C4CC4)cc3)c(Cl)c2)cc1` (single isomer, unassigned) [Example 41, (S)—N-(2,6-dichloro-4′-(cyclopropylsulfonyl)-[1,1′-biphenyl]-4-yl)-2-(4-(ethylsulfonyl)phenyl)-3-methoxypropionamide or (R)—N-(2,6-dichloro-4′-(cyclopropylsulfonyl)-[1,1′-biphenyl]-4-yl)-2-(4-(ethylsulfonyl)phenyl)-3-methoxypropionamide], at GST-RORγ LBD (263-509), the EC50 was determined as 24.6 nM and the Emax % was determined as 174.7%. For the same molecule, in data set [1] (IV 1 mg/kg), the CL_obs is recorded as 15.4** mL/min/kg, the AUC(0-t) is 1060 ng·h/mL, the highest level (Cmax) was 601 ng/mL and the half-life is 1.7 h. In addition, in data set [1] (IV 1 mg/kg), the Vd amounted to 2.02 L/kg. Besides, the bioavailability in data set [1] was found to be 116%. In data set [1] (Po 5 mg/kg), this molecule showed an AUC(0-t) of 6380 ng·h/mL, a Cmax of 1450 ng/mL and a half-life of 2.72 h.
For orientation: Emax means the size of the effect at its maximum, as opposed to the concentration needed. On GST-RORγ LBD (263-509), `CCS(=O)(=O)c1ccc(CC(=O)Nc2cc(Cl)c(-c3ccc(S(=O)(=O)C(C)C)cc3)c(Cl)c2)cc1` [Example 3, N-(2,6-Dichloro-4′-(isopropylsulfonyl)-[1,1′-biphenyl]-4-yl)-2-(4-(ethylsulfonyl)phenyl)acetamide] gave an EC50 of 14 nM and an Emax of 223%. Also, in data set [2], the EC50 was 14 nM and the Emax came out at 50.5%. This molecule gave a half-life in data set [3] of 0.232 h. For the same molecule, the “% Remaining (T = 60 min)” value in data set [3] (60 min) came out at 4.6%.
`CCS(=O)(=O)c1ccc(C(CO)C(=O)Nc2cc(Cl)c(-c3ccc(S(=O)(=O)C4CC4)cc3)c(Cl)c2)cc1` (stereo not shown) [Example 22-1, N-(2,6-Dichloro-4′-(cyclopropylsulfonyl)-[1,1′-biphenyl]-4-yl)-2-(4-(ethylsulfonyl)phenyl)-3-hydroxypropionamide]: the EC50 at GST-RORγ LBD (263-509) is 7 nM; in data set [2] it was 139 nM. Besides, the Emax on GST-RORγ LBD (263-509) stood at 179%; in data set [2] it was 73.8%.
`CS(=O)(=O)c1ccc(C(CO)C(=O)Nc2cc(Cl)c(-c3ccc(S(=O)(=O)C4CC4)cc3)c(Cl)c2)cc1` (stereo not shown) [Example 33, N-(2,6-Dichloro-4′-(cyclopropylsulfonyl)-[1,1′-biphenyl]-4-yl)-2-(4-(methylsulfonyl)phenyl)-3-hydroxypropionamide]: the EC50 was 13.3 nM at GST-RORγ LBD (263-509) and 93 nM in data set [2]. The Emax is 202% at GST-RORγ LBD (263-509) and 69.8% in data set [2].
The corresponding values for `COCC(C(=O)Nc1ccc(-c2ccc(S(=O)(=O)C3CC3)cc2)c(C(F)(F)F)c1)c1ccc(S(C)(=O)=O)cc1` (stereo not shown) [Example 42, N-(4′-(Cyclopropylsulfonyl)-2-(trifluoromethyl)-[1,1′-biphenyl]-4-yl)-3-methoxy-2-(4-(methylsulfonyl)phenyl)propionamide] are 12.6 nM, 105 nM, 194% and 60.7%.
